For test [1], the target named is T1, Tyrosine-protein phosphatase non-receptor type 1 (Homo sapiens, UniProt P18031).
T1 sequence (P18031 whole entry): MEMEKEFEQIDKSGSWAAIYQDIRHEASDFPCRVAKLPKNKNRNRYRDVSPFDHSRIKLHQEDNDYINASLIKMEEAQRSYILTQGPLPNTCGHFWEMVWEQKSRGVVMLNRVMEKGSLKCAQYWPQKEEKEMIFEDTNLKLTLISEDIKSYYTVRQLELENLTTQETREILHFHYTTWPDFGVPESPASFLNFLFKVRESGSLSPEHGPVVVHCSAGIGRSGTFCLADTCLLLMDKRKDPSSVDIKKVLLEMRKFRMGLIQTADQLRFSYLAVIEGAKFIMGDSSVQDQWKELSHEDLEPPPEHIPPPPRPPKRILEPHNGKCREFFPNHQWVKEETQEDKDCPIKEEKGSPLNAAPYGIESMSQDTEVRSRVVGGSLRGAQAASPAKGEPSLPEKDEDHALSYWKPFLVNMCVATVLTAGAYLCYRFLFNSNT
The test is described as follows: Inhibition of human recombinant PTP1B assessed as inhibition of hydrolysis of […] after 10 mins by spectrophotometry.

The target in test [2] is T2, Tyrosine-protein phosphatase non-receptor type 2 (Homo sapiens, UniProt P17706).
T2 sequence (P17706 whole entry): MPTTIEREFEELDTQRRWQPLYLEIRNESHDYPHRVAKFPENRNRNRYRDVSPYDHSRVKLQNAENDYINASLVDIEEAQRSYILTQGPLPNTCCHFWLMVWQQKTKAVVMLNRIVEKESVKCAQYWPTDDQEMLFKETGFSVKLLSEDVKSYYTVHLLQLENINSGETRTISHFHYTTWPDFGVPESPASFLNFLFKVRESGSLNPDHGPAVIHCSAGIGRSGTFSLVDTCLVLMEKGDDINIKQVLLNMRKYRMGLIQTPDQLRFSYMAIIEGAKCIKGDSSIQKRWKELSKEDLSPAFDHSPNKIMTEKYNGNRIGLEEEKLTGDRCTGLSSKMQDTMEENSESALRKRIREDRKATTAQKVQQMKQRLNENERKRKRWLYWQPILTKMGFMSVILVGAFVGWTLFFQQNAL
The test is described as follows: Inhibition of human recombinant TCPTP assessed as inhibition of hydrolysis of […] after 10 mins by spectrophotometry.

For test [3], the system named is COS-7. The test is described as follows: Cytotoxicity against african green monkey COS7 cells after 48 hrs by MTT assay. It counts as cell-based. The conditions noted are these: Chlorocebus aethiops, COS-7, 48 h.
Test [4] is filed under the species Homo sapiens. Nature of the test: Selectivity ratio of IC50 for human recombinant TCPT to IC50 for human recombinant PTP1B.

The IC50 is the concentration that inhibits the measured activity by half. Turning to `CCOS(=O)(=O)/C=C/c1ccc(OCc2ccccc2)cc1OCCc1nc(-c2ccccc2)oc1C`, the IC50 in test [1], in test [2] and in test [3] was over 100 µM in each case.
Consider `CCOS(=O)(=O)/C=C/c1ccc(OCCCCNc2nc(-c3ccccc3)c(C)s2)cc1`, for which the 50% inhibitory concentration (IC50) was 5.8 µM in test [1] and 10.6 µM in test [2].
`COC(=O)/C=C/c1ccc(/C=C/c2ccc(O)c(O)c2)cc1`: the IC50 in test [1] was over 14.9 µM.
For `CCCCOS(=O)(=O)/C=C/c1ccc(OCc2ccccc2)cc1OCCc1nc(-c2ccccc2)oc1C`, the IC50 in test [1], in test [2] and in test [3] was over 100 µM throughout.
Turning to `CCOS(=O)(=O)/C=C/c1ccc(OCCCCNc2nc(-c3ccccn3)cs2)cc1`, in test [4], the Ratio IC50 came out at 2. Besides, the IC50 in test [1] was 1.5 µM; in test [2] it was 31.9 µM.
In the case of `CCOS(=O)(=O)/C=C/c1ccc(OCCCCNc2nc(-c3ccccc3)c(C)s2)c(OC)c1`, the IC50 in test [1] is 15.1 µM; in test [2], over 100 µM.
With `CCOS(=O)(=O)/C=C/c1ccc(OCCCCNc2nc(-c3ccc(F)cc3)cs2)cc1`, in test [4], the Ratio IC50 is 2. The values for the IC50 in test [1] and in test [2] were 1.3 µM and 14.1 µM, respectively.
Take `CCOS(=O)(=O)/C=C/c1ccc(OCCCCNc2nc(-c3cccs3)cs2)cc1`: in test [4], the Ratio IC50 is 2. The IC50 was 8.6 µM in test [1] and 11.2 µM in test [2].
Take `CCOS(=O)(=O)/C=C/Cc1nc(-c2ccccc2)sc1C`: the IC50 in test [1], in test [2] and in test [3] was over 100 µM throughout.
For `O=S(=O)(O)C(F)(F)c1ccc(-c2cccc(F)c2)cc1`, the IC50 in test [1] came to 5 µM.
`CCOS(=O)(=O)/C=C/c1ccc(OCCCCNc2nc(-c3ccccc3)c(-c3ccccc3)s2)cc1`: the IC50 was found to be 9.6 µM in test [1] and 23.4 µM in test [2].
Take `CCOS(=O)(=O)/C=C/c1ccc(OCCCCNc2nc(-c3ccc(-c4ccccc4)cc3)cs2)cc1`: the Ratio IC50 in test [4] worked out at 2. Moreover, the IC50 was 1.9 µM in test [1] and 15.7 µM in test [2].
On to `CCOS(=O)(=O)/C=C/c1ccc(OCc2ccccc2)cc1OCCc1csc(-c2ccccc2)n1`, for which the half-inhibitory concentration (IC50) in test [1] was 38.4 µM; in test [2] it was 41.2 µM; in test [3] it was over 100 µM.
The like results for `CCOS(=O)(=O)/C=C/c1ccc(OCCNc2nc(-c3ccccc3)cs2)cc1` were, in that order, over 100 µM, over 100 µM and over 100 µM.
`CCOS(=O)(=O)/C=C/c1ccc(OCCc2nc(-c3ccccc3)oc2C)cc1`: the IC50 in test [1] is over 100 µM; in test [2] it was over 100 µM; in test [3] it was 84.1 µM.
On to `CCOS(=O)(=O)/C=C/c1ccc(OCCCCNc2nc(-c3ccccc3)c(-c3ccccc3)s2)c(OC)c1`, for which the IC50 in test [1] came out at 2.6 µM; in test [2] it was 8.6 µM.
As to `CCOS(=O)(=O)/C=C/c1ccc(OCCCCNc2nc(-c3cccc4ccccc34)cs2)cc1`, in test [4], the Ratio IC50 amounted to 2. Also, the IC50 in test [1] is 2.4 µM; in test [2], 8.7 µM.
Turning to `CCOS(=O)(=O)/C=C/c1ccc(OCCCCNc2nc(-c3ccc(Br)cc3)cs2)cc1`, in test [4], the Ratio IC50 came to 2. In addition, the IC50 in test [1] came to 1.3 µM; in test [2], 3.6 µM.
`CCOS(=O)(=O)/C=C/c1ccc(OCCCCNc2nc(-c3ccccc3)cs2)cc1`: the 50% inhibitory concentration (IC50) was 22 µM in test [1], 26.2 µM in test [2] and over 100 µM in test [3].
For `CCOS(=O)(=O)/C=C/c1ccc(OCCCCNc2nc(-c3ccccc3F)cs2)cc1`, the Ratio IC50 in test [4] turned out to be 2. Moreover, the IC50 in test [1] is 2.5 µM; in test [2], 6.4 µM.
Turning to `CCOS(=O)(=O)/C=C/c1ccc(OC)c(OCCCCNc2nc(-c3ccccc3)c(C)s2)c1`, in test [4], the Ratio IC50 turned out to be 2. Moreover, the IC50 in test [1] was determined as 9.7 µM; in test [2], 15.6 µM.
On to `CCOS(=O)(=O)/C=C/c1ccc(OC)c(OCCCCNc2nc(-c3ccccc3)c(-c3ccccc3)s2)c1`, for which, in test [4], the Ratio IC50 was determined as 2. In addition, the IC50 is 5.1 µM in test [1] and 11.6 µM in test [2].
In the case of `CCOS(=O)(=O)/C=C/c1ccc(OCCCCNc2nc(-c3cccc(OC)c3)cs2)cc1`, the Ratio IC50 in test [4] was determined as 2. Also, the IC50 in test [1] worked out at 2 µM; in test [2], 8.2 µM.
Consider `CCOS(=O)(=O)/C=C/c1ccc(OCCCCNc2nc(-c3ccc(OC)cc3)cs2)cc1`, for which, in test [4], the Ratio IC50 worked out at 2. Further, the figures for the IC50 in test [1] and in test [2] were 10.4 µM and over 100 µM, respectively.
With `CCOS(=O)(=O)/C=C/c1ccc(OCc2ccccc2)cc1OCCc1nc(-c2ccccc2)sc1C`, the IC50 in test [1], in test [2] and in test [3] was over 100 µM throughout.
On to `CCCCOS(=O)(=O)/C=C/c1ccc(OCCc2csc(-c3ccccc3)n2)cc1`, for which the IC50 in test [1], in test [2] and in test [3] was over 100 µM in each case.
With `CCOS(=O)(=O)/C=C/c1ccc(OC)c(OCCCCNc2nc(-c3ccccc3)cs2)c1`, the Ratio IC50 in test [4] is 2. The IC50 in test [1] was 3.3 µM; in test [2] it was 5.7 µM.
In the case of `CCCCOS(=O)(=O)/C=C/c1ccc(OCCc2nc(-c3ccccc3)oc2C)cc1`, the IC50 in test [1], in test [2] and in test [3] was over 100 µM throughout.
On to `CCOS(=O)(=O)/C=C/c1ccc(OCc2cc(-c3ccccc3)on2)cc1`, for which the IC50 in test [1], in test [2] and in test [3] was over 100 µM in each case.
As for `CCOS(=O)(=O)/C=C/c1ccc(OCCCCNc2nc(-c3ccccc3Cl)cs2)cc1`, the Ratio IC50 in test [4] was 2. Also, the values for the IC50 in test [1] and in test [2] were 1.4 µM and 5 µM, respectively.
Consider `CCOc1ccc(-c2cc(COc3ccc(/C=C/S(=O)(=O)OCC)cc3)no2)cc1`, for which the IC50 was 44.4 µM in test [1], over 100 µM in test [2] and over 100 µM in test [3].
For the compound `CCOS(=O)(=O)/C=C/c1ccc(OCCCNc2nc(-c3ccccc3)cs2)cc1`, the figures for the IC50 in test [1], in test [2] and in test [3] were 24.8 µM, 29.5 µM and over 100 µM, respectively.
Take `COS(=O)(=O)/C=C/c1ccc(OCc2ccccc2)cc1OCCc1nc(-c2ccccc2)oc1C`: the IC50 in test [1] was 24.5 µM; in test [2] it was 39.6 µM; in test [3], over 100 µM.
